The values that follow come from PMC6028453, “BrlR from Pseudomonas aeruginosa is a receptor for both cyclic di-GMP and pyocyanin” (Nature Communications, 2018).

One test concerns brlR transcription. Put plainly: qRT-PCR of brlR transcript. The test is classed as cell-based, P. aeruginosa PAO1. The note with it: elevated c-di-GMP by diguanylate cyclase PA4843 in PAO1. The procedure:
PAO1 WT strains were grown under different conditions. For c-di-GMP effects, overexpression of PA4843 in PAO1 (PAO1/pHERD20T-PA4843) relative to WT cells (PAO1/ pHERD20T) was determined. When P. aeruginosa strains entered mid-log phase, arabinose was added to induce gene expression. To test pyocyanin’s effect, a P. aeruginosa PAO1 WT strain cells with high pyocyanin production was determined relative to a ΔphzA1-G1/phzA2-G2 strain not producing phenazine and a ΔphzMSH strain not producing pyocyanin.
Total RNA was extracted using a MiniBEST Universal RNA Extraction Kit (TaKaRa) and cDNA synthesis was performed using a PrimeScript RT reagent Kit (TaKaRa). Primers for RT-PCR listed in Supplementary Table 1 were designed using the program PrimerExpress (Applied Biosystems). The RT-PCR reactions were performed on a CFX96 Real-Time PCR Detection System (Bio-Rad) using SYBR Premix Ex Taq™ (TaKaRa). Expression of the target genes was normalized to the expression of 16 S RNA. The relative transcript abundance was calculated according to the 2^−ΔΔCt method. Five biological replicates were performed per sample. The data were analyzed with a one-tailed t-test (***P ≤ 0.001).
Background: In qPCR the cycle at which signal appears reflects the starting amount.

Another test deals with T1, BrlR R86A DNA binding (Pseudomonas aeruginosa, UniProt Q9HUT5, R86A).
T1 construct: His6-SUMO (N, cleaved yes); made in house; host or cells: E. coli BL21 DE3
Put plainly: EMSA, BrlR R86A. The test is classed as biochemical. The procedure:
A 6-carboxy-fluorescein (FAM)-labeled 36-bp brlR promoter DNA (PbrlR) or 80-bp mexA/mexE promoter DNA (PmexA/PmexE) probes (~0.375 pmol), BrlR protein and varying amounts of inducers were incubated in binding buffer (10 mM Tris HCl [pH 7.4], 50 mM KCl, 1 mM DTT, […] and 5 ng/mL poly [dI-dC]) for 60 min at 25 °C. Finally, glycerol was added to a concentration of 6.5%. The samples were subjected to a 5% polyacrylamide gel electrophoresis and run in 0.5 × Tris-borate-EDTA buffer at 80 V for 1 h at room temperature. Imaging and data analyses were performed using a Typhoon Scanner (GE Healthcare) and Imagequant software. The probes used are listed in Supplementary Table 1.
A general note: Mobility shift assays separate free from complexed probe on a gel.

Test [1] deals with brlR promoter activity (wild-type BrlR). Briefly: β-galactosidase assay, PbrlR-brlR-lacZ reporter, wild-type BrlR. The test is classed as cell-based, Pseudomonas aeruginosa. The note with it: ΔbrlR strain, pHERD20T-PA4843 vs pHERD20T. The procedure:
We also performed β-galactosidase activity assays using a PbrlR-brlR-lacZ reporter construct to investigate the transcriptional function of BrlR mutants in vivo. […] To confirm the effect of c-di-GMP in P. aeruginosa, we carried out real-time quantitative PCR analyses. Following a previous report, we introduced the diguanylate cyclase PA4843 into a WT P. aeruginosa strain carrying either pHERD20T-empty or pHERD20T-PA4843. The transcription level of brlR was analyzed using the brlR 5 F and brlR 3 R primers (Supplementary Table 1). The transcriptional level of brlR in pHERD20T-PA4843 strain is 4.5 ± 1.3-fold higher than that in the pHERD20T-empty strain (Fig. 4h).
β-galactosidase activity was assayed with P. aeruginosa PA01 ΔbrlR strain carrying plasmid pME6522-borne transcriptional lacZ fusions. P. aeruginosa carrying the empty vector was used as the […]. The reporter plasmids are derivatives of the pME6522 plasmid in which multiple cloning sites were inserted before the LacZ with the promoter and coding regions of brlR with diverse mutations. These reporter plasmids were transformed into the reporter strain. Overnight cultures were diluted 20-fold with LB medium supplemented with appropriate antibiotics. […]

T1 sequence (Q9HUT5 whole entry R86A): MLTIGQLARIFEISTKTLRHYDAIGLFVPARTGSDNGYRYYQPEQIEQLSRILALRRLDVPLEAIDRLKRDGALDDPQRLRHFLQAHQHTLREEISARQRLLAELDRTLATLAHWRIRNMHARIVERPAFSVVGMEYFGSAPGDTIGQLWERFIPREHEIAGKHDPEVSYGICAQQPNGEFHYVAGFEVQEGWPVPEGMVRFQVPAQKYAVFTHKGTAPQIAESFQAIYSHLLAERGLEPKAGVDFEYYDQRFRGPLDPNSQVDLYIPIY

Take `Nc1nc2c(ncn2[C@@H]2O[C@@H]3COP(=O)(O)O[C@H]4[C@@H](O)[C@H](n5cnc6c(=O)[nH]c(N)nc65)O[C@@H]4COP(=O)(O)O[C@H]3[C@H]2O)c(=O)[nH]1` [c-di-GMP, cyclic diguanylate monophosphate]: the “transcriptional level of brlR, pHERD20T-PA4843 strain vs pHERD20T-empty strain” value in the test on brlR transcription turned out to be 4.5 ± 1.3 fold. For the same compound, the “DNA bound in the presence vs absence of c-di-GMP” value at BrlR R86A DNA binding is given as ~ 1.5 fold. Besides, in test [1], the “increase at high vs low c-di-GMP concentration (β-galactosidase activity)” value turned out to be 3.3 fold.
